Laboratory results published in US20150297619A1, “METHODS AND COMPOSITIONS FOR PRESERVING THE MUCOSAL BARRIER” (priority 2014, published 2015).

Columns and labels:
intestinal villi cells = assay: TUNEL labeling of ischemic intestine (apoptosis); parameters: species or system rat; conditions: after 2 hrs ex vivo ischemia
From the text: To assess the level of apoptosis after ischemia, in situ terminal transferase dUTP nick end labeling (TUNEL) labeling was completed using a kit (Trevigen, Gaithersburg, Md.) according to manufacturer's instructions. Sections were counterstained with 0.05% toluidine blue in 1% boric acid to contrast 3,3′-diaminobenzidine (DAB) positive nuclei (brown) from negatively stained nuclei (blue). Prior to mounting, all slides were dehydrated (70, 95, 100% ethanol) and cleaned with xylene. After air-drying overnight, sections were mounted using Hard Set Mounting Media (Vector Laboratories, Burlingame, Calif.). Digital images were captured with a 20× objective (numerical aperture 0.5) and digitally montaged together after background subtraction.

[1] = test system: MMP-9 dimers, pro-MMP-2, MMP-2, MMP-1 or MMP-3; assay: Gelatin gel zymography of pre-ischemic intestinal homogenates renatured with inhibitor: MMP bands; type: biochemical, rat; conditions: inhibitor in renaturing and developing buffer: tranexamic acid 20 mM, doxycycline 1 mg/ml, GM-6001 1 ug/ml
Experimental: Gelatin Gel Zymography—Segments 2 and 7 from pre-ischemic intestines were homogenized (0.1 g tissue/ml homogenization buffer; PBS pH 7.4 with 0.5% hexadecyltrimethyl bromide) and centrifuged at 1.4×10^4 g for 20 minutes. Supernatants were stored at −80° C. until samples were processed. To assess the proteolytic activities of individual proteases in intestinal tissue samples, sample volumes of 1 μl (with 2 μg of protein) were separated by gel electrophoresis in SDS-PAGE gels containing 80 μg/ml gelatin. […] The molecular weights of the proteases were estimated by use of a standard protein ladder (Invitrogen). Gels were digitized and bands were analyzed by densitometry in ImageJ (rsbweb.nih.gov/ij/). […] These gels were compared to a concurrently run gel processed normally.

MMP gelatinase activity bands (220 kDa MMP-9 dimers, pro-MMP-2, MMP-2, 50 kDa band) [1]	Structure (SMILES)	apoptosis (TUNEL labeling) (intestinal villi cells)
	O=C[C@H](O)[C@@H](O)[C@H](O)[C@H](O)CO [Glucose, glucose]	little apoptosis in the villi
significantly reduce	NC[C@H]1CC[C@H](C(=O)O)CC1 [tranexamic acid]	
